Test results published in US20260182572A1, “HERBICIDAL COMPOSITIONS” (SYNGENTA CROP PROTECTION AG, priority 2022, published 2026).

Key:
Type in all cases: in vivo
Conditions in all cases: sprayed after 8 days, evaluated after 13 days
[1] = tested on: Alopecurus myosuroides (ALOMY); assay: Glasshouse post-emergence phytotoxicity test, Alopecurus myosuroides (ALOMY)
Description: (§1) Seeds of Amaranthus retroflexus (AMARE), Echinochloa crus-galli (ECHCG), Digitaria sanguinalis (DIGSA), Lolium perenne (LOLPE), Alopecurus myosuroides (ALOMY), Chenopodium album (CHEAL), and Ipomoea hederacea (IPOHE) were sown in standard sterilised soil in pots. After cultivation for 8 days under controlled conditions in a glasshouse (at 24/16° C., day/night; 14 hours light; 65% humidity), the plants were sprayed at 500 l/Ha with an aqueous spray solution derived from the formulation of the technical active ingredients in a small amount of acetone and a solvent and emulsifier mixture referred to as IF50 (11.12% Emulsogen EL360 TM+44.44% N-methylpyrrolidone+44.44% Dowanol DPM glycol ether), to create a 50 g/l solution which was then diluted using 0.2% Genapol XO80 (CAS Number: 9043-30-5) as diluent to give the desired final dose of test compound. Where active ingredients were applied as mixtures, aqueous spray solutions were prepared as above, containing both active ingredients. The test plants were then grown under controlled conditions in a glasshouse (at 24/16° C., day/night; 14 hours light; 65% humidity) and watered twice daily. After 13 days, the test was evaluated visually for percentage phytotoxicity to the plants (where 100=total damage to plant; 0=no damage to plant) when compared to control untreated plants. Two to four replicates were applied for each treatment in a randomised block test design.
(§2) 22., E=X+Y−(X*Y/100), where • X=average percent phytotoxicity of herbicide A when applied at a certain rate • Y=average percent phytotoxicity using herbicide B when applied at a certain rate • E=the expected effect of the mixture of herbicides A and B as calculated from the Colby formula.

[2] = tested on: Ipomoea hederacea (IPOHE); assay: Glasshouse post-emergence phytotoxicity test, Ipomoea hederacea (IPOHE)
Description: as §1, §2

[3] = tested on: Echinochloa crus-galli (ECHCG); assay: Glasshouse post-emergence phytotoxicity test, Echinochloa crus-galli (ECHCG)
Description: as §1, with “Where active ingredients were applied as mixtures, aqueous spray solutions were prepared as above, containing both active ingredients. The test plants were then grown under controlled conditions in a glasshouse (at 24/16° C., day/night; 14 hours light; 65% humidity) and watered twice daily.” left out, “Two to four replicates were applied for each treatment in a randomised block test design.” left out
as §2

[4] = tested on: Digitaria sanguinalis (DIGSA); assay: Glasshouse post-emergence phytotoxicity test, Digitaria sanguinalis (DIGSA)
Description: as §1, §2

[5] = tested on: Amaranthus retroflexus (AMARE); assay: Glasshouse post-emergence phytotoxicity test, Amaranthus retroflexus (AMARE)
Description: as §1, §2

[6] = tested on: Chenopodium album (CHEAL); assay: Glasshouse post-emergence phytotoxicity test, Chenopodium album (CHEAL)
Description: as §1, §2

[7] = tested on: Lolium perenne (LOLPE); assay: Glasshouse post-emergence phytotoxicity test, Lolium perenne (LOLPE)
Description: as §1, §2

COC(=O)[C@@H](C)O/N=C/c1cc(-n2c(=O)cc(C(F)(F)F)n(C)c2=O)c(F)cc1Cl [A]
Observed percentage phytotoxicity ([1]; rate 0.039 g/ha): 0% | Observed percentage phytotoxicity ([1]; rate 0.313 g/ha): 3% | Observed percentage phytotoxicity ([2]; rate 0.078 g/ha): 20% | Observed percentage phytotoxicity ([2]; rate 0.313 g/ha): 68% | Observed percentage phytotoxicity ([3]; rate 0.313 g/ha): 1% | Observed percentage phytotoxicity ([4]; rate 0.156 g/ha): 3% | Observed percentage phytotoxicity ([4]; rate 0.313 g/ha): 9% | Observed percentage phytotoxicity ([5]; rate 0.078 g/ha): 39% | Observed percentage phytotoxicity ([5]; rate 0.156 g/ha): 68% | Observed percentage phytotoxicity ([6]; rate 0.156 g/ha): 24% | Observed percentage phytotoxicity ([6]; rate 0.313 g/ha): 31% | Observed percentage phytotoxicity ([6]; rate 0.625 g/ha): 33% | Observed percentage phytotoxicity ([7]; rate 0.078 g/ha): 3% | Observed percentage phytotoxicity ([7]; rate 0.156 g/ha): 0% | Observed percentage phytotoxicity ([7]; rate 0.313 g/ha): 5%

c1cc[n+]2c(c1)-c1cccc[n+]1CC2 [B-III]
Observed percentage phytotoxicity ([2]; rate 7.5 g/ha): 5% | Observed percentage phytotoxicity ([5]; rate 3.75 g/ha): 8% | Observed percentage phytotoxicity ([6]; rate 15 g/ha): 15%

COC(=O)CCNC(=O)C(C)Sc1cc(-n2c(=O)cc(C(F)(F)F)n(C)c2=O)c(F)cc1Cl (stereo not drawn) [B-II]
Observed percentage phytotoxicity ([2]; rate 0.156 g/ha): 18% | Observed percentage phytotoxicity ([2]; rate 0.313 g/ha): 40% | Observed percentage phytotoxicity ([4]; rate 0.313 g/ha): 8% | Observed percentage phytotoxicity ([5]; rate 0.078 g/ha): 30% | Observed percentage phytotoxicity ([6]; rate 0.078 g/ha): 15% | Observed percentage phytotoxicity ([6]; rate 0.156 g/ha): 18% | Observed percentage phytotoxicity ([6]; rate 0.313 g/ha): 18% | Observed percentage phytotoxicity ([7]; rate 0.156 g/ha): 5% | Observed percentage phytotoxicity ([7]; rate 0.313 g/ha): 3%

C=CCOC(=O)C(C)(C)OC(=O)c1cc(-n2c(=O)cc(C(F)(F)F)n(C)c2=O)ccc1Cl [B-I]
Observed percentage phytotoxicity ([1]; rate 0.039 g/ha): 0% | Observed percentage phytotoxicity ([1]; rate 0.625 g/ha): 8% | Observed percentage phytotoxicity ([3]; rate 0.625 g/ha): 5% | Observed percentage phytotoxicity ([4]; rate 0.156 g/ha): 5% | Observed percentage phytotoxicity ([4]; rate 0.313 g/ha): 10% | Observed percentage phytotoxicity ([4]; rate 0.625 g/ha): 15% | Observed percentage phytotoxicity ([5]; rate 0.078 g/ha): 33% | Observed percentage phytotoxicity ([6]; rate 0.156 g/ha): 20% | Observed percentage phytotoxicity ([6]; rate 0.313 g/ha): 40% | Observed percentage phytotoxicity ([7]; rate 0.039 g/ha): 0% | Observed percentage phytotoxicity ([7]; rate 0.313 g/ha): 5% | Observed percentage phytotoxicity ([7]; rate 0.625 g/ha): 5%
